# Measured values reported in patent publication US11366104B2, “Methods of identifying and monitoring mitochondrial dysfunction using monocyte screening” (Stealth BioTherapeutics Inc., priority 2014, dated 2022).
# What was measured:
# [1] = tested on: Monocytes from Normal Dogs; assay: Oxygen consumption rate (XF analyzer) in isolated monocytes incubated with peptide, normal dogs; assay type: cell-based, dog; settings: for MAXresp (maximal respiration) / Proton Leak / SRC (spare respiratory capacity): monocytes from normal dogs
# Protocol: (§1) Peripheral blood samples were obtained from 6 normal dogs and 6 dogs with coronary microembolizations-induced heart failure (LV ejection fraction ˜30%). Monocytes were isolated from the peripheral blood samples via sequential Ficoll and Percoll density gradients. Monocyte viability, assayed using Trypan blue exclusion, was ˜70%. An XFc/XF96 analyzer (Scahorsc Bioscience) was used to measure oxygen consumption rates (OCR) in monocytes in the presence and absence of 1 μM oligomycin, 0.5 μM FCCP, or 1 μM each rotenone and antimycin. Mitochondrial proton leak, maximal respiration (MAXresp) and spare respiratory capacity (SRC) were measured in the presence and absence of 0.1, 1.0 and 10 μM concentrations of D-Arg-2′6′Dmt-Lys-Phe-NH2. Results were expressed in pmols OCR/min/μg protein.
# [2] = tested on: Monocytes from Heart Failure Dogs; assay: Oxygen consumption rate (XF analyzer) in isolated monocytes incubated with peptide, heart failure dogs; assay type: cell-based, dog; settings: for MAXresp (maximal respiration) / Proton Leak / SRC (spare respiratory capacity): monocytes from heart failure dogs
# Protocol: as §1
# [3] = tested on: several mammalian cell types; settings: energy-independent manner; Zhao et al., J. Pharmacol Exp Ther., 304:425-432, 2003; cited from earlier work
# [4] = heart failure dogs, 0.1, 1.0 and 10 μM
substance,measurement,setting,value
D-Arg-2′6′Dmt-Lys-Phe-NH2,MAXresp (maximal respiration),[1]; peptide concentration 0.1 μM,11.1 pmols OCR/min/μg protein
same,Proton Leak,[1]; peptide concentration 0.1 μM,0.54 pmols OCR/min/μg protein
same,SRC (spare respiratory capacity),[1]; peptide concentration 0.1 μM,6.35 pmols OCR/min/μg protein
same,MAXresp (maximal respiration),[1]; peptide concentration 1.0 μM,12.1 pmols OCR/min/μg protein
same,Proton Leak,[1]; peptide concentration 1.0 μM,0.47 pmols OCR/min/μg protein
same,SRC (spare respiratory capacity),[1]; peptide concentration 1.0 μM,7.04 pmols OCR/min/μg protein
same,MAXresp (maximal respiration),[1]; peptide concentration 10 μM,12.1 pmols OCR/min/μg protein
same,Proton Leak,[1]; peptide concentration 10 μM,0.48 pmols OCR/min/μg protein
same,SRC (spare respiratory capacity),[1]; peptide concentration 10 μM,7.04 pmols OCR/min/μg protein
same,effect on measures of monocyte mitochondrial function,"[1]; normal dogs, incubation with 0.1, 1.0 and 10 μM",no effect
same,change in MAXresp with concentration,[2]; [4],dose-dependent increase
same,change in SRC with concentration,[2]; [4],dose-dependent increase
same,change in proton leak with concentration,[2]; [4],dose-dependent decrease
same,monocyte mitochondrial function,"[2]; heart failure dogs, after treatment with 0.1, 1.0 and 10 μM",nearly normalized/restored
same,MAXresp (maximal respiration),[2]; peptide concentration 0.1 μM,6.3 pmols OCR/min/μg protein
same,Proton Leak,[2]; peptide concentration 0.1 μM,1.55 pmols OCR/min/μg protein
same,SRC (spare respiratory capacity),[2]; peptide concentration 0.1 μM,1.95 pmols OCR/min/μg protein
same,MAXresp (maximal respiration),[2]; peptide concentration 1.0 μM,8.3 pmols OCR/min/μg protein
same,Proton Leak,[2]; peptide concentration 1.0 μM,0.94 pmols OCR/min/μg protein
same,SRC (spare respiratory capacity),[2]; peptide concentration 1.0 μM,3.64 pmols OCR/min/μg protein
same,MAXresp (maximal respiration),[2]; peptide concentration 10 μM,9.4 pmols OCR/min/μg protein
same,Proton Leak,[2]; peptide concentration 10 μM,0.77 pmols OCR/min/μg protein
same,SRC (spare respiratory capacity),[2]; peptide concentration 10 μM,4.51 pmols OCR/min/μg protein
"2′,6′-Dmt-D-Arg-Phe-Lys-NH2",penetration of the plasma membrane,[3],readily penetrates the plasma membrane
